Measured values taken from patent US20210047278A1, “E3 UBIQUITIN LIGASE AGONISTS, PHARMACEUTICAL COMPOSITIONS INCLUDING THE E3 UBIQUITIN LIGASE AGONISTS, RELATED METHODS OF USE” (FRED HUTCHINSON CANCER RESEARCH CENTER, priority 2018, published 2021).
Where two headings read alike, the source gives them in different places.

Tests used:
Assay type in all cases: binding
pCycE alone = assay: Counterscreen 2 ALPHAscreen with cyclin E phosphopeptide alone (CSRUN2/DCSRUN2); details: for CyCEP ACT DCSRUN2 Averaged Max % Response: activation relative to WT-FBW7+pCycE, averaged maximum; for EC50: dose-response, triplicate, 10 point 3-fold dilutional series, read-out: CyCEP ACT DCSRUN2 Final EC50
Procedure: (§1) Studies in 384-well format were performed using the ENVISION system. Reagent concentrations (see FIG. 6A), order of addition, pH (see FIG. 6B), and reducing agent were altered with the goal of enhancing the dynamic range between wt-FBW7 (the positive control) and FBW7^ARG (FIG. 6 and not shown). Wt-FBW7 produced a signal 100× greater with phosphorylated cyclin E degron peptide compared with unphosphorylated, which represents the assay's maximum range (FIG. 6C). […] This assay thus detects the residual affinity of the FBW7^ARG-substrate interaction, which, as predicted, is stronger than wt-FBW7 protein with unphosphorylated cyclin E peptide. Concurrent with this primary assay, counter ALPHAscreens were developed which omitted either FBW7 or peptide (to eliminate hits that are general ALPHAscreen agonists), or used an irrelevant phosphopeptide (to eliminate compounds that simply augment binding to phosphopeptides). […]
(§2) The 77 hits were subjected to a dose-response assay in which each compound was tested in triplicate in a 10 point 3-fold dilutional series, to a maximum concentration of approximately 87 μM. Three screens were performed, using FBW7^ARG+pCycE (DRUN), FBW7^ARG (DCSRUN1), or pCycE alone (DCSRUN2). See TABLES 2, 3, and 4, respectively, and FIG. 10A. All of the assays performed extremely well, and threshold of 10% activation (relative to WT-FBW7+pCycE) was set as positive. […] Many hits fell into shared structure cluster ID groups, reinforcing the idea that they function as specific agonists (see below and TABLE 5).

FBW7^ARG+pCycE = biological target: T1, FBW7^ARG+pCycE (Homo sapiens, UniProt Q969H0, R505L); assay: FBW7^ARG-cyclin E agonist ALPHAscreen (primary PRUN, confirmation CRUN1, dose-response DRUN); details: for EC50 / Emax: DRUN dose-response; for Emax: relative to WT-FBW7+pCycE, read-out: FBW7 ACT Averaged Max % Response
T1 construct: GST (TEV site and flexible linker) (N, cleaved yes); made in house; host or cells: SF9 insect cells (baculovirus)
From the text: FBW7^ARG refers to a class of loss-of-function mutations of the of FBW7 ubiquitin ligase that target a key phosphate-binding arginine residue in the FBW7 substrate-binding domain. These mutations are commonly found in human cancers and promote tumorigenesis by impairing the interactions between FBW7 and its substrates, such as cyclin E and Myc. Described herein is a high throughput screen (HTS) to identify agonists, such as small molecules, that augment FBW7^ARG-substrate binding. In an embodiment, the HTS is based on the Amplified Luminescent Proximity Homogenous Assay (ALPHAscreen) because it detects protein-protein interactions with a large dynamic range. ALPHAscreen is a bead-based proximity assay wherein donor beads contain a photosensitizer, phthalocyanine, and acceptor beads contain thioxene, anthracene and rubrenein in sufficient quantities to generate a chemiluminescence/fluorescence reaction (FIG. 4A). Upon excitation with excitation illumination, such as light having a wavelength of 680 nm, of the donor beads, phthalocyanine converts ambient oxygen to singlet oxygen, which can diffuse approximately 200 nm within its 4-microsecond half-life. If an acceptor bead is in close proximity to an excited donor bead, singlet oxygen transfers its energy to the acceptor, resulting in emitted light at a broad bandwidth of −520-620 nm. The HTS-compatible FBW7/cyclin E ALPHAscreen assay described herein uses streptavidin coupled donor beads and Ni-chelate acceptor beads. In this assay, biotinylated cyclin E phosphopeptide and the His-tagged FBW7 mutant protein have high affinity for the donor and acceptor beads, respectively (FIG. 4B). A small molecule that is able to bridge the binding sites of the peptide and the mutant protein (or induce a conformational change that increases affinity of the protein for the peptide) will bring the donor and acceptor beads in close proximity to each other, resulting in an ALPHA signal. As designed, this assay format is a very sensitive, non-radioactive, homogenous “mix-and-read” format that is HT compatible in 384 and 1536 well formats.
In the 384-well screening assay, 10 uL of acceptor beads with 25 nM of the FBW7^ARG (RLFBW7) are dispensed to test wells; acceptor beads with 25 nM of the wt-FBW7 protein (WTFBW7) are dispensed to control wells. Test compounds are then added by pintool transfer and the mixture is incubated for 30 minutes. An additional 10 uL of donor beads with 25 nM cyclin E phosphopeptide is then added to all wells and the plate is incubated for 4 hours before the ALPHA signal is measured.
In preparation for large-scale screening, the assay was miniaturized to a 1536-well format. The miniaturized screen performed outstandingly in all respects. The screen was enhanced with respect to several parameters and assayed its performance using mutant FBW7 and wt-FBW7, as well as non-specific assay agonists. […] For example, the following Z′-scores/FBW7 concentrations were obtained: 6.25 nM/Z′=0.62, 12.5 nm/Z′=0.85, 25.0 nM/Z′=0.84.
1. Add 2.5 uL of RLFBW7/cycE˜P/Ni beads: Final [25 nM/25 nM/10 ug/ml].
2. Add 2.5 uL of WTFBW7/cycE˜P/Ni beads: Final [25 nM/25 nM/10 ug/ml].
4. Add 2.5 uL of SA beads to all wells Final [10 ug/ml],
5. Add 30 nL of compounds,
6. Read ALPHAscreen on Envision
The large-scale FBW7 agonist ALPHAscreen was completed using FBW7^ARG and a phosphorylated cyclin E (pCycE) degron peptide. Wt-FBW7+pCycE-peptide was the “high control”, and Wt-FBW7+unphosph. CycE peptide was the “low control”. The screen was performed on the 645,000-compound Scripps Diversity Library using 1536-well format and drug concentrations of 26.1 μM. An algorithm aided hit identification based on the average percent activation for all compounds and their standard deviation.
A confirmation assay of all 853 compounds in triplicate using a single concentration (26.1 μM). […]

FBW7^ARG (RLFBW7) alone = biological target: T2, FBW7^ARG (RLFBW7) alone (Homo sapiens, UniProt Q969H0, R505L); assay: Counterscreen 1 ALPHAscreen with FBW7^ARG alone (CSRUN1/DCSRUN1); details: dose-response counterscreen; for Emax: read-out: RLFBW7 ACT DCSRUN1 Averaged Max % Response
T2 construct: GST (TEV site and flexible linker) (N, cleaved yes); made in house; host or cells: SF9 insect cells (baculovirus)
Procedure: as §1, §2

[1] = raw curve fit, read-out: FBW7 ACT EC50 Curve Fit Raw, Molar
[2] = triplicate, 10 point 3-fold dilution, max approx. 87 μM, read-out: FBW7 ACT Final EC50, Molar
[3] = confirmation assay, triplicate, single concentration 26.1 μM, read-out: FBW7 ACT CRUN1 Avg % Response and Stdev
[4] = primary screen, 1536-well, 26.1 μM, FBW7^ARG + pCycE degron peptide, high control wt-FBW7+pCycE, read-out: FBW7 ACT PRUN % Response
[5] = raw curve fit, read-out: RLFBW7 ACT DCSRUN1 EC50 Curve Fit Raw
[6] = read-out: RLFBW7 ACT DCSRUN1 Final EC50

T2 sequence (Q969H0 64-707 R505L): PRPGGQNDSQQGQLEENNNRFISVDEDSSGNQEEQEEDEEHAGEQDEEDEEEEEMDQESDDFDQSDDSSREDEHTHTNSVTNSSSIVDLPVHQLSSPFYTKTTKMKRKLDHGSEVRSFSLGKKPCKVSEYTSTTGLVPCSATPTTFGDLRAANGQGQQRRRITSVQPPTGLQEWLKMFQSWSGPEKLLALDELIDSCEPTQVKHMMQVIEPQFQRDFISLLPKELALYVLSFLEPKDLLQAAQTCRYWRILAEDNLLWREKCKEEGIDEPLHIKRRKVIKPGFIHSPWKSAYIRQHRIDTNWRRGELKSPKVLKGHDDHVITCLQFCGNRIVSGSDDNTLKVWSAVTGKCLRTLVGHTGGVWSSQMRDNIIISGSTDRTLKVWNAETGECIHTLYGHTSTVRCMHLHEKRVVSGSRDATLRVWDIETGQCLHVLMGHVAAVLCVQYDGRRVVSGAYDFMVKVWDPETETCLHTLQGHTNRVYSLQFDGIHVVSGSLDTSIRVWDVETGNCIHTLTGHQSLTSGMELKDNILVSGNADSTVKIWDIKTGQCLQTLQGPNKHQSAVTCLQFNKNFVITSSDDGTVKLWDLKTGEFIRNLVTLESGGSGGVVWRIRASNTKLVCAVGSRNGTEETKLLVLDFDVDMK
T2 sequence (P63208 2-163 partner): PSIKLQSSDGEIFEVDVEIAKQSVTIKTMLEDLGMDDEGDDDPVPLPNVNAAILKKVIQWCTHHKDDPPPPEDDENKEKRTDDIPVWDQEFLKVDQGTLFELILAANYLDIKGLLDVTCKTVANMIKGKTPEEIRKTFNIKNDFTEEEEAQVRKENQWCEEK
T1 sequence (Q969H0 64-707 R505L): as the sequence (Q969H0 64-707 R505L) above
T1 sequence (P63208 2-163 partner): as the sequence (P63208 2-163 partner) above

Row | SMILES | CyCEP ACT DCSRUN2 Averaged Max % Response (pCycE alone) [%] | EC50 (pCycE alone) [µM] | EC50 (FBW7^ARG+pCycE; [1]) [µM] | Emax (FBW7^ARG+pCycE) [%] | EC50 (FBW7^ARG+pCycE; [2]) [µM] | activation at 26.1 µM (FBW7^ARG+pCycE; [3]) [%] | activation at 26.1 µM (FBW7^ARG+pCycE; [4]) [%] | EC50 (FBW7^ARG (RLFBW7) alone; [5]) [µM] | Emax (FBW7^ARG (RLFBW7) alone) [%] | EC50 (FBW7^ARG (RLFBW7) alone; [6]) [µM]
1 | O=C(NCCCN1CCc2ccccc2C1)Nc1ccc(Br)cc1 [SR-01000123578-1] | 0.28 | > 65.3 | 0.255 | 6.18 | > 65.3 | 2.32 ± 0.39 | 3.06 | 0.255 | -0.0757 | > 65.3
2 | CC(=O)Nc1ccc(NC(=O)Cn2cnc3c(cnn3C(C)(C)C)c2=O)cc1 [SR-01000137195-1] | 0.27 | > 65.3 | 13.4 | 15.2 | > 65.3 | 4.47 ± 0.6 | 4.02 | 0.0182 | 0.23 | > 65.3
3 | Cc1cccc(N2CCN(C(=O)CCc3nc(C4=CCN(C)CC4)no3)CC2C)c1 (stereo not drawn) [SR-01000140019-1] | 0.31 | > 65.3 | – | 10.2 | – | 3.38 ± 0.3 | 4.08 | – | -0.213 | –
4 | CCN(Cc1ccccc1)C(=O)c1cc2c(=O)n3cccc(C)c3nc2n1C [SR-01000140943-1] | 0.79 | > 65.3 | 21.5 | 8.52 | > 65.3 | 2.95 ± 0.31 | 3.93 | 4.1 | 1.56 | > 65.3
5 | Cc1nc(C(C)NC(=O)c2cc(COc3ccc(F)cc3F)on2)cs1 (stereo not drawn) [SR-01000168282-1] | 0.37 | > 65.3 | 2.3 | 6.52 | > 65.3 | 1.88 ± 0.38 | 2.02 | 0.0108 | 1.75 | > 65.3
6 | CC1=C(C(=O)OC(C)C)C(c2ccncc2)C2=C(CC(c3ccccc3)CC2=O)N1 (stereo not drawn) [SR-01000217822-2] | 0.03 | > 60.9 | 23 | 7.67 | > 60.9 | 6.36 ± 0.25 | 2.06 | 25.2 | 0.88 | > 60.9
7 | CCN1C(=O)c2cccc3c(N4CCCC4)ccc(c23)C1=O [SR-01000221568-1] | 0.35 | > 65.3 | 17.4 | 16.3 | > 65.3 | 3.1 ± 0.38 | 2.07 | 14.2 | 8.96 | > 65.3
8 | COc1cccc(C=O)c1OC(=O)c1cccc(Cl)c1 [SR-01000242625-1] | 0.61 | > 65.3 | 26.7 | 33.6 | > 65.3 | 9.26 ± 0.67 | 11.9 | 0.0369 | 1.05 | > 65.3
9 | CCCOc1ccc(C2C(C(=O)OC)=CN(CCOC)C=C2C(=O)OC)cc1 [SR-01000259436-1] | 0.31 | > 65.3 | 21.9 | 10.7 | > 65.3 | 2.9 ± 0.27 | 2.13 | 19 | 5.19 | > 65.3
10 | CCN(CC)c1ccc2cc(-c3nc(C)cs3)c(=O)oc2c1 [SR-01000312020-1] | 0.77 | > 65.3 | 8.2 | 13.9 | > 65.3 | 5.16 ± 7.04 | 3.44 | 11.6 | 6.67 | > 65.3
11 | COc1cccc(/C=N/c2cnn(C)c2C(N)=O)c1O [SR-01000314216-1] | 0.18 | > 65.3 | 26.4 | 22.7 | > 65.3 | 4.06 ± 0.07 | 3.64 | – | 0.25 | > 65.3
